Tests used:
[1] = target: T1, nicotinic binding site (Rattus norvegicus, UniProt P09483+P12390); assay: biochemical; details: Rat cortical membranes, [3H]N-methylcarbamylcholine iodide 2.5 nM, read-out: Receptor Binding Activity Percent Inhibition Average (N = 2)
T1 construct: Rat cortical membranes; from tissue; host or cells: rat cortical membranes

[2] = target: Glycine (Strychnine Insensitive) (Rattus norvegicus, UniProt P35439); assay: biochemical; format: binding; details: read-out: Receptor Binding Activity Percent Inhibition Average (N = 2)
[3] = intravenous; cats; cited from earlier work
[4] = humans, cited from earlier work
[5] = target: T2, Dopamine (D1 Central) (Rattus norvegicus, UniProt P18901); assay: Dopamine (D1 Central) Binding Assay; details: Rat striatal membranes, [3H]SCH 23390 0.5 nM
T2 construct: Rat striatal membranes; from tissue; host or cells: rat striatal membranes
T2 sequence (P18901 whole entry): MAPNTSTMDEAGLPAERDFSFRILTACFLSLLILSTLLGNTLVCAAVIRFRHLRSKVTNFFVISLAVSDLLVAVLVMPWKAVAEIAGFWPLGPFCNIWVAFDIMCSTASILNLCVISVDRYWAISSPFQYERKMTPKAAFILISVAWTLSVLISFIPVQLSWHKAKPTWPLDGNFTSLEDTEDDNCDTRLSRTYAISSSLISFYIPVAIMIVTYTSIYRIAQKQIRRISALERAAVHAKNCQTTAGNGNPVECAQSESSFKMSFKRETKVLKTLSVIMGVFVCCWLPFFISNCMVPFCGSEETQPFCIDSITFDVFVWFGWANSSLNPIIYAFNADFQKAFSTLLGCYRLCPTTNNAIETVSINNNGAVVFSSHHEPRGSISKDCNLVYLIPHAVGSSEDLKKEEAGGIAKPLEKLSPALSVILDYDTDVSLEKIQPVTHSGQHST

[6] = target: T3, Human recombinant M2 clone (Homo sapiens, UniProt P08172); assay: Muscarinic--M2 Clone Binding Assay
T3 construct: expressed in transfected cells
T3 sequence (P08172 1-466): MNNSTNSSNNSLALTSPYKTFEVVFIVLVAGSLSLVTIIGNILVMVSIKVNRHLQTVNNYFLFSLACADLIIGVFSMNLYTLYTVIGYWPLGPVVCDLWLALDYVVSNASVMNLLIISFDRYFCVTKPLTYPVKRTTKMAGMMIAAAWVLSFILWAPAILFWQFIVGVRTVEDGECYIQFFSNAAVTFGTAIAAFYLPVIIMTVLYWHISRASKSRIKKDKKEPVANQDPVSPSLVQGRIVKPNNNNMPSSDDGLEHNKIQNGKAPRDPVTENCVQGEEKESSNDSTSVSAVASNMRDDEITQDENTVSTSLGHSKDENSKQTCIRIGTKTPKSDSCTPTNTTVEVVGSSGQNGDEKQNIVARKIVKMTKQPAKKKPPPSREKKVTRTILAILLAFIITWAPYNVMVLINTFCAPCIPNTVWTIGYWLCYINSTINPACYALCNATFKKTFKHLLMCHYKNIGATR

[7] = target: T4, recombinant Rat 5HT7 Clone (Rattus norvegicus, UniProt P32305); assay: Serotonin--5HT7 Clone Binding Assay; details: [3H]LSD 2.0 nM, read-out: Receptor Binding Activity Percent Inhibition Average (N = 2)
T4 construct: expressed in transfected cells
T4 sequence (P32305 whole entry): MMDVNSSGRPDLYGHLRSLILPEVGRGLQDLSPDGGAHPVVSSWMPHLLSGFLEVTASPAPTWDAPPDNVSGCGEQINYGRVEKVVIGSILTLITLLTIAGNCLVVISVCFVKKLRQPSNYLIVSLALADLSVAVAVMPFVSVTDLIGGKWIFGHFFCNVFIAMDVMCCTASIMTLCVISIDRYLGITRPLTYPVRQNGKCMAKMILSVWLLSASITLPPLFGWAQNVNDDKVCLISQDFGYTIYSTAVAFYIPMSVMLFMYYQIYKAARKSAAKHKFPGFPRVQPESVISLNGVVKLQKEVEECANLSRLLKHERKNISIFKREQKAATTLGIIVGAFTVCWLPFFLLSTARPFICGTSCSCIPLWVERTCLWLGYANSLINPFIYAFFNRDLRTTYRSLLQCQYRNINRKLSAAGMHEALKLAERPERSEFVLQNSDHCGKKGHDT

[8] = Half-life, bioavailability and blood levels in humans; parameters: species or system human; details: in vivo
[9] = target: T5, Opiate (Delta) (Rattus norvegicus, UniProt P33533); assay: Opiate (Delta) Binding Assay; details: read-out: Receptor Binding Activity Percent Inhibition Average (N = 2)
T5 construct: Rat forebrain membranes; from tissue; host or cells: rat forebrain membranes
T5 sequence (P33533 whole entry): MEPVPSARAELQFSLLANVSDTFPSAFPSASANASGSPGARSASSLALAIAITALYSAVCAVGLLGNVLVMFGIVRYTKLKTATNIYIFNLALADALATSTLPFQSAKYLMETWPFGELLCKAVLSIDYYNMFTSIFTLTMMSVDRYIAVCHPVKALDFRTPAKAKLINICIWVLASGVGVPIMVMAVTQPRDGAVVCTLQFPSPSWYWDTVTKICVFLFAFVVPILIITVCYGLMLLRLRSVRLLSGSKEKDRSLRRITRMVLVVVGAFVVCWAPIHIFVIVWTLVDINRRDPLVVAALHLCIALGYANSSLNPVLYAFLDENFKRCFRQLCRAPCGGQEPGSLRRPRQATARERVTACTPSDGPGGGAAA

[10] = system: Serotonin (Non-Selective); assay: Serotonin (Non-Selective) Binding Assay; details: Rat cortical membranes, [3H]Lysergic acid diethylamide 5.0 nM
[11] = target: T6, GABA uptake site (Rattus norvegicus, UniProt P23978); assay: biochemical; details: Rat cortical membranes, [3H]GABA 3.6 nM, read-out: Receptor Binding Activity Percent Inhibition Average (N = 2)
T6 construct: Rat cortical membranes; from tissue; host or cells: rat cortical membranes

[12] = target: T7, Histamine (H2) (Cavia porcellus, UniProt P47747); assay: Histamine (H2) Binding Assay; parameters: species or system Guinea pig; details: Guinea pig striatal membranes, [3H]Tiotidine 4.0 nM, read-out: Receptor Binding Activity Percent Inhibition Average (N = 2)
T7 construct: Guinea pig striatal membranes; from tissue; host or cells: guinea pig striatal membranes
T7 sequence (P47747 whole entry): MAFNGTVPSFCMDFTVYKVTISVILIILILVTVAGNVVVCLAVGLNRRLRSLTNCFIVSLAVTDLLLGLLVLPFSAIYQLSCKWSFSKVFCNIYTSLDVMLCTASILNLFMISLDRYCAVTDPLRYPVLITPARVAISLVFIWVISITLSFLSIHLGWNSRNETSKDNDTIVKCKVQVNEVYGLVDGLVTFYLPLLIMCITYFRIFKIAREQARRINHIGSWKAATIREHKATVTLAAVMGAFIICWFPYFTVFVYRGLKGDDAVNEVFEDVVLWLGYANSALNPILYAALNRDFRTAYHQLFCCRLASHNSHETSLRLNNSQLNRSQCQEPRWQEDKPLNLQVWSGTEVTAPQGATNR

[13] = cited from earlier work
[14] = target: T8, Human recombinant M1 clone (Homo sapiens, UniProt P11229); assay: biochemical; format: binding
T8 construct: expressed in transfected cells
T8 sequence (P11229 1-460): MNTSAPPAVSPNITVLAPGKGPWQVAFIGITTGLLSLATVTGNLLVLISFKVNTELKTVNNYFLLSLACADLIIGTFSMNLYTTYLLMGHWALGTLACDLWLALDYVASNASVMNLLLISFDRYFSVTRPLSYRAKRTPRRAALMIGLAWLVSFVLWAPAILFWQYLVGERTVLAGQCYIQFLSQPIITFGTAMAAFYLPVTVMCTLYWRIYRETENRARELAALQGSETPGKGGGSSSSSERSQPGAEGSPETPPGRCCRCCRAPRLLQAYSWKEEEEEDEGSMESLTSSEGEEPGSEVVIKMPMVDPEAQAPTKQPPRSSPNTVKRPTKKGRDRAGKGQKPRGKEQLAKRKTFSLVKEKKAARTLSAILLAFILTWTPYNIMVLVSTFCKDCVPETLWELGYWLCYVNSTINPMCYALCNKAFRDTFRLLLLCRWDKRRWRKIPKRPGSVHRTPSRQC

[15] = intramuscular injections; wide range of doses; squirrel monkeys; cited from earlier work
[16] = system: Glutamic Acid Decarboxylase (GAD); assay: Glutamic Acid Decarboxylase (GAD) Enzyme Assay; format: biochemical; details: 10^-8 M; Rat corpus striatal membranes; [14C]L-Glutamic acid
Experimental: Radioimmunoassay studies were conducted with rat corpus striatal membranes using the following method.
Glutamic Acid Decarboxylase (GAD) Enzyme Assay
Rat corpus striatal membranes
Substrate: [^14 C]L-Glutamic acid (30-80 Ci/mmol)
Reactions are incubated in phosphate/mercapoethanol buffer
6.9) for 30 minutes at 37° C. The reaction is
stopped by the addition
of trichloroacetic acid and placement on ice. Radioactive
trapped in phenylethylamine/methanol and quantitated using
scintillation […] in order to ascertain any
of test compounds with the glutamic acid decarboxylase

[17] = target: T9, dopamine uptake site (Cavia porcellus, UniProt H0WCX4); assay: Dopamine Reuptake Binding Assay; details: Guinea pig striatal membranes, [3H]WIN,35,428 1.0 nM
T9 construct: Guinea pig striatal membranes; from tissue; host or cells: guinea pig striatal membranes
T9 sequence (H0WCX4 1-619): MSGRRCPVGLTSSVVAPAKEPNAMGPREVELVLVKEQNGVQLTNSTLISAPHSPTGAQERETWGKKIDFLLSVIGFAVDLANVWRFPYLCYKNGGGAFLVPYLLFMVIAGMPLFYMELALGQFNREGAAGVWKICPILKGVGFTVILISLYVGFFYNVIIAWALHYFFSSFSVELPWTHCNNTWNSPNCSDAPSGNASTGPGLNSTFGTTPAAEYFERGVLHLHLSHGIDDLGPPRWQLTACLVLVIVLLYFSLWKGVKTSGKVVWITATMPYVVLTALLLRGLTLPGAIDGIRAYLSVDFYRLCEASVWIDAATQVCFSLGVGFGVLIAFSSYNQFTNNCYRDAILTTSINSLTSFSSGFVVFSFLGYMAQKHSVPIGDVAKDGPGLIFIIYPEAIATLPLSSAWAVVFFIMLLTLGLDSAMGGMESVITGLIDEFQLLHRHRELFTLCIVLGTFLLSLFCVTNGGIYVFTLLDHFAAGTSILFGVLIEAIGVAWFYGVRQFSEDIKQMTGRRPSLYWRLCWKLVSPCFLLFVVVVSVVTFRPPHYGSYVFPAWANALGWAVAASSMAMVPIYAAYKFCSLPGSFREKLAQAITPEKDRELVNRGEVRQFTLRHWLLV

[18] = read-out: Receptor Binding Activity Percent Inhibition Average (N = 2)

T1 sequence (P09483 31-630): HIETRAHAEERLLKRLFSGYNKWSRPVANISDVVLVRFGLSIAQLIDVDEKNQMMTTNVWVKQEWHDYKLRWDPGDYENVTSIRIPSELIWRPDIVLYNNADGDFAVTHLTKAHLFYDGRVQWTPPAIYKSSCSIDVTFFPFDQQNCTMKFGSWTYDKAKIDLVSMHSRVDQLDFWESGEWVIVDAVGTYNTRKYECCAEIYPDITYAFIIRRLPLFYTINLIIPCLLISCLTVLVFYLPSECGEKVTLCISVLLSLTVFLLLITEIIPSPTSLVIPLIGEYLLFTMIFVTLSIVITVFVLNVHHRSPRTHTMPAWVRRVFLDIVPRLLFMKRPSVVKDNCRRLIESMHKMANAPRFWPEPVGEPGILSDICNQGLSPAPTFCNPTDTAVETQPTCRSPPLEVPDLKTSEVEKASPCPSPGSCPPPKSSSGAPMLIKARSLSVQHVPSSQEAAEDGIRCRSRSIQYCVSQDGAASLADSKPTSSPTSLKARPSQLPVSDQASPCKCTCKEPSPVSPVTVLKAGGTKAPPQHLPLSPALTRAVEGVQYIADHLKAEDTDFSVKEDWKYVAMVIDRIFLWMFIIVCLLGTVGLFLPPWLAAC
T1 sequence (P12390 25-500): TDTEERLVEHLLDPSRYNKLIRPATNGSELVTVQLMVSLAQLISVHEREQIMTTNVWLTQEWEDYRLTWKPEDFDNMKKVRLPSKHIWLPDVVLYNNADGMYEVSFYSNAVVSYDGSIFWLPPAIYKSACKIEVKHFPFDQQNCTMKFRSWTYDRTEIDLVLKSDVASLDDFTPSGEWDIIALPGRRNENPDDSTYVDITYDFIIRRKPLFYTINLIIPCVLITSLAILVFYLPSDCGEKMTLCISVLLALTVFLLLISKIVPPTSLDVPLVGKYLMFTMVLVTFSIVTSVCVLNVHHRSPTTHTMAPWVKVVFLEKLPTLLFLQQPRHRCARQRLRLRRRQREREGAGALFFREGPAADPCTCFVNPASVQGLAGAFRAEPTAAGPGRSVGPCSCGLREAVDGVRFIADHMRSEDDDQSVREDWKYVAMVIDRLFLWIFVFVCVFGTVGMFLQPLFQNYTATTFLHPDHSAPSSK

CN1C(=O)CCC1c1cccnc1 (single isomer, unassigned) [Cotinine, 1-methyl-5-(3-pyridinyl)-2-pyrrolidionone]
inhibition at 100 µM ([1]; 10^-4 M): 12%
inhibition at 1 µM ([1]; 10^-6 M): 78.5%
inhibition at 1 µM [2]: 10.9%
inhibition at 100 µM [2]: -0.6%
EEG activity and behavioral arousal [3]: increases only slightly
blood pressure [3]: only a slight decrease
cardiovascular changes ([4]; intravenous infusion over 60 minutes): no cardiovascular changes
subjective ratings of desire to smoke, irritability, low energy and anxiety/tension ([4]; intravenous infusion over 60 minutes, comparable to placebo-induced changes): significant decreases
subjective ratings ([4]; rapid infusion over 5 minutes): no significant changes
Receptor Binding Activity Percent Inhibition Average (N = 2) ([5]; 10^-4 M): 3.3%
Receptor Binding Activity Percent Inhibition Average (N = 2) ([5]; 10^-6 M): 2.9%
effectiveness in binding relative to an equal concentration of nicotine, binding expressed as percent inhibition ([6]; muscarinic-2 receptor, human tissue): about five
inhibition at 1 µM [6, 18]: 22.3%
inhibition at 100 µM [6, 18]: 21.6%
inhibition at 100 µM ([7]; 10^-4 M): 6.4%
inhibition at 1 µM ([7]; 10^-6 M): -0.3%
duration of effectiveness relative to nicotine, due to greater half-life [8]: about eight
inhibition at 1 µM [9]: 8.3%
inhibition at 100 µM [9]: 10%
Receptor Binding Activity Percent Inhibition Average (N = 2) ([10]; 10^-4 M): 12.1%
Receptor Binding Activity Percent Inhibition Average (N = 2) ([10]; 10^-6 M): 4.6%
inhibition at 100 µM ([11]; 10^-4 M): 7.4%
inhibition at 1 µM ([11]; 10^-6 M): 13.9%
inhibition at 100 µM ([12]; 10^-4 M): -1.4%
inhibition at 1 µM ([12]; 10^-6 M): 9.2%
amount present in the blood without producing deleterious effects ([13]; humans): ~18,000 ng/ml
effect on the cardiovascular system ([13]; in vivo): minimal effect
harm at very high doses ([13]; many species, including man): has not been reported to be harmful
effectiveness in binding relative to an equal concentration of nicotine, binding expressed as percent inhibition [14]: about 19 times
inhibition at 1 µM [14, 18]: 15.5%
inhibition at 100 µM [14, 18]: 19.5%
rates of responding on fixed interval schedules of reinforcement [15]: increased rates of responding
Percent Inhibition [16]: 38%
Receptor Binding Activity Percent Inhibition Average (N = 2) ([17]; 10^-4 M): 7.5%
Receptor Binding Activity Percent Inhibition Average (N = 2) ([17]; 10^-6 M): 14.2%

From US5889029A, “Use of cotinine in treating psychiatric disorders” (priority 1997, dated 1999)
